One experiment concerns the target T1, NK1 receptor (Cavia porcellus, UniProt P30547).
T1 construct: from tissue; host or cells: isolated guinea pig ileum
Kind of experiment: Test for NK1 receptor antagonist: substance P concentration-response in isolated guinea pig ileum, Schild analysis. It counts as cell-based. As to conditions: antagonism of substance P, 10 min pretreatment, Schild method. As for the experimental part:
(1) Test for NK1 Receptor Antagonist
The method used was according to the method proposed by S. Dion et al. (Dion et al., Life Sciences 41 (1987): 2269), to which minor modifications were made.
Guinea pigs were stunned by a blow on the head and were exsanguinated from the carotid artery and ileum was isolated. The ileum was mounted in an organ bath containing Tyrode's solution which was maintained at 32° C. and gased with 95% O2 and 5% CO2. The ileum was subjected to a resting tension of 1-gram and allowed to equilibrate for 20 minutes before the experiment was started. As a control, a concentration-response curve for substance P obtained in the absence of test compounds was used. The NK1 receptor antagonist activity of each test compound was determined by a concentration-response curve obtained by pretreating at least three concentrations of the test compound for 10 minutes and subsequently applying substance P in a cumulative manner. The Kb values were determined according to the method proposed by Schild and the results are shown in Table 1 (Schild Brit. J. Pharmacol. 14 (1959): 49).
The composition of the Tyrode's solution was as follows: NaCl=136.9, KCl=2.7, CaCl2.2H2O=2.5, MgCl2.6H2O=1.0, NaH2PO4.2H2O=0.4, NaHCO3=11.9, glucose=11.1 (mmol/L)

The next experiment concerns Guinea pigs. The experiment can be described thus: Cystometry test on guinea pigs with cut spinal cord (effective bladder capacity). The experiment is classed as in vivo. The settings on record: guinea pig. The source says:
(2) Cystometry Test on Guinea Pigs
The method used was according to the method proposed by J S. Peterson et al. (Peterson J S. et al., J. Pharmacol. Methods 21 (1989): 231), to which minor modifications were made.
Guinea pigs were anesthetized with halothane and the tenth thoracic spinal cord was cut in each animal. Subsequently, both ureters were ligated and were cut on the kidney-side. Polyethylene catheters were inserted into the bladder to provide an injection pathway for physiological saline and a pathway for the measurement of intravesical pressure. Each animal was restricted in a Ballman cage and was left for more than 2 hours. Subsequently, room-temperature saline was injected through the bladder catheter into the bladder at a rate of 6 mL/hr to conduct a cystometry test. After the effective bladder capacity was stabilized, a test compound was intravenously administered from the jugular vein. The effective bladder capacity is defined as the volume of saline injected from one urination to the next. The effect of each test compound was determined as the increase in the average bladder volume, which was determined by taking difference between the average bladder volume measured 30 minutes prior to the administration of the test compound and the average bladder volume measured every 30 minutes after the administration of the test compound.

T1 sequence (P30547 whole entry): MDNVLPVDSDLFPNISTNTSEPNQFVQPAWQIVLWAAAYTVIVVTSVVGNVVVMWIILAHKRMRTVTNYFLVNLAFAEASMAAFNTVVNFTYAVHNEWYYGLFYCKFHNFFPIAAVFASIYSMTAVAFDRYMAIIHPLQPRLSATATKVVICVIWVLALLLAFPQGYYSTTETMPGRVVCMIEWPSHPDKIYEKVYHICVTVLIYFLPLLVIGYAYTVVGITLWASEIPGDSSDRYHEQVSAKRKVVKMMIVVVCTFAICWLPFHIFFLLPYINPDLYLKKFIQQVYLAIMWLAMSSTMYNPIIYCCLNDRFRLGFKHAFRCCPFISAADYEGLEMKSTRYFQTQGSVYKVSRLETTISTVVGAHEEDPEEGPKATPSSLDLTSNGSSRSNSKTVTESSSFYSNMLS

As a reminder, the Kb is the affinity of an antagonist, worked out from how it opposes an agonist. With `Cc1ccccc1-c1cc(N2CCC(N3CCOCC3)CC2)nc2c1C(=O)N(Cc1cc(C(F)(F)F)cc(C(F)(F)F)c1)CCCO2` [Example 9, 5-[3,5-bis(trifluoromethyl)benzyl]-7-(2-methylphenyl)-9-[4-(morpholine-4-yl)piperidine-1-yl]-6-oxo-2,3,4,5-tetrahydro-6H-pyrido[2,3-b][1,5]oxazocine], the Kb at NK1 receptor amounted to 0.0848 nM.
`CC(=O)NC1CCN(c2cc(-c3ccccc3C)c3c(n2)OCCCN(Cc2cc(C(F)(F)F)cc(C(F)(F)F)c2)C3=O)CC1` [Example 13, 9-[4-(acetylamino)piperidine-1-yl]-5-[3,5-bis(trifluoromethyl)benzyl]-7-(2-methylphenyl)-6-oxo-2,3,4,5-tetrahydro-6H-pyrido[2,3-b][1,5]oxazocine]: on NK1 receptor, the Kb is 0.17 nM.
In the case of `O=C1c2c(-c3ccccc3)cc(N3CCC(N4CCCC4)CC3)nc2OCCCN1Cc1cc(C(F)(F)F)cc(C(F)(F)F)c1` [Example 1, 5-[3,5-bis(trifluoromethyl)benzyl]-6-oxo-7-phenyl-9-[4-(pyrrolidine-1-yl)piperidine-1-yl]-2,3,4,5-tetrahydro-6H-pyrido[2,3-b][1,5]oxazocine], the Kb at NK1 receptor was 0.224 nM.
For the compound `O=C1c2c(-c3ccc(F)cc3)cc(N3CCC(N4CCCC4)CC3)nc2OCCCN1Cc1cc(C(F)(F)F)cc(C(F)(F)F)c1` [Example 4, 5-[3,5-bis(trifluoromethyl)benzyl]-7-(4-fluorophenyl)-6-oxo-9-[4-(pyrrolidine-1-yl)piperidine-1-yl]-2,3,4,5-tetrahydro-6H-pyrido[2,3-b][1,5]oxazocine], at NK1 receptor, the Kb amounted to 0.148 nM.
In the case of `Cc1ccc(-c2c3n(c(=O)c4ncccc24)CC[C@@H](C)CN(Cc2cc(C(F)(F)F)cc(C(F)(F)F)c2)C3=O)cc1` [TAK-637], the “Increase in bladder capacity” value in the experiment with Guinea pigs (0.3 mg/kg i.v.) amounted to 12.0%; in the experiment on Guinea pigs (1 mg/kg i.v.), 23.8%; in the experiment on Guinea pigs (3 mg/kg i.v.), 20.5%.
For the compound `Cc1ccccc1-c1cc(N2CCC(N3CCCC3)CC2)nc2c1C(=O)N(Cc1cc(C(F)(F)F)cc(C(F)(F)F)c1)CCCO2` [Example 7, 5-[3,5-bis(trifluoromethyl)benzyl]-7-(2-methylphenyl)-6-oxo-9-[4-(pyrrolidine-1-yl)piperidine-1-yl]-2,3,4,5-tetrahydro-6H-pyrido[2,3-b][1,5]oxazocine], the entries for the “Increase in bladder capacity” value in the experiment with Guinea pigs (0.3 mg/kg i.v.) and in the experiment with Guinea pigs (1 mg/kg i.v.) were 24.2% and 46.0%, respectively. The Kb at NK1 receptor amounted to 0.21 nM.
`Cc1ccccc1-c1cc(N2CCC(N(C)C)CC2)nc2c1C(=O)N(Cc1cc(C(F)(F)F)cc(C(F)(F)F)c1)CCCO2` [Example 8, 5-[3,5-bis(trifluoromethyl)benzyl]-9-[4-(dimethylamino)piperidine-1-yl]-7-(2-methylphenyl)-6-oxo-2,3,4,5-tetrahydro-6H-pyrido[2,3-b][1,5]oxazocine]: the Kb at NK1 receptor is 0.275 nM.
As for `Cc1ccccc1-c1cc(N2CCC(N3CCCC3=O)CC2)nc2c1C(=O)N(Cc1cc(C(F)(F)F)cc(C(F)(F)F)c1)CCCO2` [Example 10, 5-[3,5-bis(trifluoromethyl)benzyl]-7-(2-methylphenyl)-6-oxo-9-[4-(2-oxopyrrolidine-1-yl)piperidine-1-yl]-2,3,4,5-tetrahydro-6H-pyrido[2,3-b][1,5]oxazocine], the Kb at NK1 receptor turned out to be 0.286 nM.

These data come from patent US7030107B2, “Fused bicyclic pyridine derivatives as tachykinin receptor antagonists” (Kyorin Pharmaceutical.Co., Ltd., priority 2001, dated 2006).
